Laboratory results taken from ChEMBL document CHEMBL4339224, “Identification of a Strigoterpenoid with Dual Nrf2 and Nf-κB Modulatory Activity” (ACS Med Chem Lett, 2019).
pEC50, pIC50: −log10 of the molar value. Calls of active or inactive are those of the source. The calls are words filed in the database; no cut-off is given here.

Legend:
[1] = Inhibition of TNFalpha-induced NFkappaB (unknown origin) expressed in mouse NIH3T3-KBF-Luc cells pre-incubated for 15 mins before TNFalpha stimulation for 6 hrs by luciferase reporter gene assay; assay type: cell-based, Homo sapiens
[2] = target: T1, Nuclear factor erythroid 2-related factor 2 (Homo sapiens, UniProt Q16236); assay: Activation of Nrf2 in human HaCaT-ARE-Luc cells expressing Nqo1 ARE-Luc reporter plasmid incubated for 6 hrs by luciferase reporter gene assay; assay type: cell-based
T1 sequence (Q16236 whole entry): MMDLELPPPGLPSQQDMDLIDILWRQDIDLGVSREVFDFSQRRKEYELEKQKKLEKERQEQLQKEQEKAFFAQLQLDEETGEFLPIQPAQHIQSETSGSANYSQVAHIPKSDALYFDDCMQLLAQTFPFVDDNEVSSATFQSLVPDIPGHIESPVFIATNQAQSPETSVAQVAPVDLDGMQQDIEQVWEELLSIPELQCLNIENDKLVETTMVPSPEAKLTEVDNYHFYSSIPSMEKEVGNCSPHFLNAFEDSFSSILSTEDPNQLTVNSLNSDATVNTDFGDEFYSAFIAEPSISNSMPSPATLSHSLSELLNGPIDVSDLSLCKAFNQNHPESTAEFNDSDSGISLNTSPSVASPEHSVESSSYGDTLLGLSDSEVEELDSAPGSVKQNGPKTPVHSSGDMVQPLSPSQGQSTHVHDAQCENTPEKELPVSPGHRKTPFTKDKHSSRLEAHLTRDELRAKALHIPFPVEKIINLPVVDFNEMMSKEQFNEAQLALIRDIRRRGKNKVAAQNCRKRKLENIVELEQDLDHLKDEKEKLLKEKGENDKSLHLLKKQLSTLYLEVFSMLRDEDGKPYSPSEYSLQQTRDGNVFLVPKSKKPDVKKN

HaCaT [3] = assay: Induction of ROS production in human HaCaT cells at 10 uM incubated for 3 hrs by DCFH-DA staining based fluorimetry; assay type: functional, cell-based
[4] = target: T2, Nuclear factor erythroid 2-related factor 2 (Homo sapiens) (UniProt Q16236); assay: Activation of Nrf2 in human HaCaT-ARE-Luc cells expressing Nqo1 ARE-Luc reporter plasmid at 0.1 to 50 uM in presence of 15 mM NAC incubated for 6 hrs by luciferase reporter gene assay; assay type: cell-based
T2 sequence (whole entry): T1 sequence (Q16236 whole entry)

[5] = target: Transcription factor p65 (Homo sapiens) (UniProt Q04206); assay: Inhibition of TNFalpha-induced NFkappaB (unknown origin) canonical pathway expressed in mouse NIH3T3-KBF-Luc cells assessed as inhibition of p65 phosphorylation pre-incubated for 15 mins before TNFalpha stimulation for 6 hrs by Western blot analysis; assay type: cell-based
Transcription factor p65 (Homo sapiens), sequence (Q04206 whole entry): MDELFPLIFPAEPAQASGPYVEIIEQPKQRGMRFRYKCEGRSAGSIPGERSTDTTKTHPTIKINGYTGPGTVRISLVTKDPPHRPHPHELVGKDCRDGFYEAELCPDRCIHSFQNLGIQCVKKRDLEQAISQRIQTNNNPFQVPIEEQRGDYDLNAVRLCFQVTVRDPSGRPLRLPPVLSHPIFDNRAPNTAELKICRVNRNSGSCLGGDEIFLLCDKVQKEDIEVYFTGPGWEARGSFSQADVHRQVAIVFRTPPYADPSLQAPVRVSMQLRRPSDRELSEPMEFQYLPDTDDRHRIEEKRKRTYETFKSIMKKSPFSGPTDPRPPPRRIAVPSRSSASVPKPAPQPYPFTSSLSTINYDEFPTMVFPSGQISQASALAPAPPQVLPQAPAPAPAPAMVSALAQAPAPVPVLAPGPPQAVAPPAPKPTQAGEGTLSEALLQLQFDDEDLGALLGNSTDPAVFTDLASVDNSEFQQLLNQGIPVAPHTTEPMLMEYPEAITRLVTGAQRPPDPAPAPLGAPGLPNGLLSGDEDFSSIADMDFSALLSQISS

Homo sapiens = species on record: Homo sapiens; assay: Inhibition of TNFalpha-induced NFkappaB (unknown origin) canonical pathway expressed in mouse NIH3T3-KBF-Luc cells assessed as inhibition of IkappaB-alpha phosphorylation pre-incubated for 15 mins before TNFalpha stimulation for 6 hrs by Western blot analysis; assay type: cell-based
HaCaT [6] = assay: Induction of ROS production in human HaCaT cells at 400 uM incubated for 3 hrs by DCFH-DA staining based fluorimetry; assay type: functional, cell-based

Compound	pIC50 [1]	pEC50 [2]	also measured
CC1=CC(O/C=C2/C(=O)C(=C(C)C)CC[C@H]2C)OC1=O (stereo partly drawn)	< 4.30	5.30	–
CC1=CC(OCC2=CC3CC(C2)C3(C)C)OC1=O (stereo not drawn)	< 4.30	4.81	–
CC1=CC(OCc2ccc(C(C)C)cc2)OC1=O (stereo not drawn)	< 4.30	4.79	–
CC(C)=CCCC(C)CCOC1C=C(C)C(=O)O1 (stereo not drawn)	< 4.30	4.64	–
CC1=CC(OC2C[C@H](C)CC[C@H]2C(C)C)OC1=O (stereo partly drawn)	< 4.30	4.58	–
CC1=CC(O/C=C2\C[C@]3(C)C(COc4ccc5ccc(=O)oc5c4)[C@](C)(O)CC[C@H]3C(C)(C)C2=O)OC1=O (stereo partly drawn)	5.10	5.92	Activity (HaCaT [3]): inactive; Activity [4]: inactive
COC(=O)[C@@]1(C)CC[C@]2(C)CC[C@]3(C)C(=CC(=O)[C@@H]4[C@@]5(C)C/C(=C\OC6C=C(C)C(=O)O6)C(=O)C(C)(C)[C@@H]5CC[C@]43C)[C@@H]2C1 (stereo partly drawn)	< 4.30	< 4.30	–
C=C(C)[C@@H]1CC[C@]2(C)CC[C@]3(C)[C@H](CC[C@@H]4[C@@]5(C)C/C(=C\OC6C=C(C)C(=O)O6)C(=O)C(C)(C)[C@@H]5CC[C@]43C)[C@@H]12 (stereo partly drawn)	< 4.30	< 4.30	–
CC1=CC(O/C=C2\C[C@]3(C)[C@H]4CC=C5[C@@H]6[C@@H](C)[C@H](C)CC[C@]6(C)CC[C@@]5(C)[C@]4(C)CC[C@H]3C(C)(C)C2=O)OC1=O (stereo partly drawn)	< 4.30	< 4.30	–
CC1=CC(O/C=C2/C(=O)C(C)[C@H]3C[C@@]23C(C)C)OC1=O (stereo partly drawn)	< 4.30	5.72	–
COC(=O)/C(C)=C/CC/C(C)=C/CC/C(C)=C/CC[C@@H]1[C@@]2(C)C/C(=C\OC3C=C(C)C(=O)O3)C(=O)C(C)(C)C2CC[C@@]1(C)O (stereo partly drawn)	–	5.60	–
CC1=C[C@H](O/C=C2/C(=O)O[C@@H]3C4=C(C[C@H]23)[C@@H](O)CCC4(C)C)OC1=O [STRIGOL]	–	5.92	–
C=C(C)[C@@H]1CC=C(C)C(=O)/C1=C/OC1C=C(C)C(=O)O1 (stereo partly drawn)	< 4.30	5.80	–
CC(C)=CCOC1C=C(C)C(=O)O1 (stereo not drawn)	< 4.30	4.53	–
C=C(C)[C@@H]1CC[C@]2(C(=O)OC)CC[C@]3(C)[C@H](CC[C@@H]4[C@@]5(C)C/C(=C\OC6C=C(C)C(=O)O6)C(=O)C(C)(C)[C@@H]5CC[C@]43C)[C@@H]12 (stereo partly drawn)	< 4.30	< 4.30	–
CC1=CC(O/C=C2\C[C@]3(C)[C@H]4CC=C5[C@@H]6CC(C)(C)CC[C@]6(C)CC[C@@]5(C)[C@]4(C)CC[C@H]3C(C)(C)C2=O)OC1=O (stereo partly drawn)	< 4.30	< 4.30	–
COC(=O)[C@]12CCC(C)(C)C[C@H]1C1=CC[C@@H]3[C@@]4(C)C/C(=C\OC5C=C(C)C(=O)O5)C(=O)C(C)(C)[C@@H]4CC[C@@]3(C)[C@]1(C)CC2 (stereo partly drawn)	< 4.30	< 4.30	–
CC1=CC(O/C=C2/C(=O)[C@H](C(C)C)CC[C@H]2C)OC1=O (stereo partly drawn)	< 4.30	4.75	–
COC(=O)[C@]12CC[C@@H](C)[C@H](C)[C@H]1C1=CC[C@@H]3[C@@]4(C)C/C(=C\OC5C=C(C)C(=O)O5)C(=O)C(C)(C)[C@@H]4CC[C@@]3(C)[C@]1(C)CC2 (stereo partly drawn)	< 4.30	< 4.30	inhibition [5]: inactive; inhibition (Homo sapiens): inactive
CC(C)(C)OO	–	–	Activity (HaCaT [6]): Active
CC(C)=CCC/C(C)=C/COC1C=C(C)C(=O)O1 (stereo not drawn)	< 4.30	4.79	–
